# Source: US20150104392A1, “COMPOSITIONS, BIOMARKERS AND THEIR USE IN THE TREATMENT OF CANCER” (Aptose Biosciences Inc., priority 2013, published 2015)
# What was measured:
# EOL-1 = test: XTT antiproliferative assay; type: cell-based; settings: Homo sapiens, EOL1, 120 h; EOL-1, Acute myeloid leukemia; 5 days incubation
# Method: (§1) Antiproliferative activity of LOR-253 was determined by XTT assay as follows. Adherent cells (2×10^3/well) in 100 μL of growth medium were seeded in 96-well cell culture plates and incubated overnight at 37° C. The medium was removed and replaced with a total volume of 100 μL growth medium containing LOR-253 (or 0.1% DMSO vehicle control), as described in the respective experiments. Suspension cells were plated (4-6×10^3/well) in 50 μL growth medium, and 50 μL growth medium containing LOR-253 (or 0.1% DMSO vehicle control) was added to each well. After incubation of the cells at 37° C. for 5 days, cell viability was quantitated with the use of sodium 3′-[1-(phenylamino-carbonyl)-3,4-tetrazolium}-bis(4-methoxy-6-nitro)benzene sulfonic acid hydrate (XTT) colorimetric assay (Roche). XTT labeling reagent (1 mg/mL) was mixed with electron-coupling reagent, following the manufacturer's instructions, and 50 μL of the mixture was added directly to the cells. The plates were further incubated at 37° C. for 4 h, and the absorbance of each well was measured at 490 nm with a multiwell spectrophotometer (Bio-Tek Instruments Inc.). The data were adjusted relative to the blank and expressed as a percentage of cell growth compared with the vehicle control. (Ref. Huesca et al., Mol Cancer Ther. 2009. 8:2586-96; Lorus publication on LOR-133)
# MV-4-11 = test: XTT antiproliferative assay; type: cell-based; settings: Homo sapiens, MV4-11, 120 h; MV-4-11, Acute myeloid leukemia; 5 days incubation
# Method: as §1
# OCI-AML2 = test: XTT antiproliferative assay; type: cell-based; settings: Homo sapiens, 120 h; OCI-AML2, Acute myeloid leukemia; 5 days incubation
# Method: as §1
# DB = test: XTT antiproliferative assay; type: cell-based; settings: Homo sapiens, 120 h, Non-Hodgkin's Lymphoma, 5 days incubation
# Method: as §1
# KG-1 = test: XTT antiproliferative assay; type: cell-based; settings: Homo sapiens, 120 h; KG-1, Acute myeloid leukemia; 5 days incubation
# Method: as §1
# Ramos = test: XTT antiproliferative assay; type: cell-based; settings: Homo sapiens, 120 h, Non-Hodgkin's Lymphoma, 5 days incubation
# Method: as §1
# CA46 = test: XTT antiproliferative assay; type: cell-based; settings: Homo sapiens, 120 h; CA46, Non-Hodgkin's Lymphoma; 5 days incubation
# Method: as §1
# RL = test: XTT antiproliferative assay; type: cell-based; settings: Homo sapiens, 120 h, Non-Hodgkin's Lymphoma, 5 days incubation
# Method: as §1
# MOLT-4 = test: XTT antiproliferative assay; type: cell-based; settings: Homo sapiens, 120 h; MOLT-4, Acute lymphoblastic leukemia; 5 days incubation
# Method: as §1
# HEL92.1.7 = test: XTT antiproliferative assay; type: cell-based; settings: Homo sapiens, HEL 92.1.7, 120 h; HEL92.1.7, Acute myeloid leukemia; 5 days incubation
# Method: as §1
# THP-1 = test: XTT antiproliferative assay; type: cell-based; settings: Homo sapiens, 120 h; THP-1, Acute myeloid leukemia; 5 days incubation
# Method: as §1
# Raji = test: XTT antiproliferative assay; type: cell-based; settings: Homo sapiens, 120 h, Non-Hodgkin's Lymphoma, 5 days incubation
# Method: as §1
# MM.1R = test: XTT antiproliferative assay; type: cell-based; settings: 120 h, Multiple myeloma, 5 days incubation
# Method: as §1
# Kasumi-1 = test: XTT antiproliferative assay; type: cell-based; settings: Homo sapiens, 120 h; Kasumi-1, Acute myeloid leukemia; 5 days incubation
# Method: as §1
# SKM-1 = test: XTT antiproliferative assay; type: cell-based; settings: Homo sapiens, 120 h; SKM-1, Acute myeloid leukemia; 5 days incubation
# Method: as §1
# NB4 = test: XTT antiproliferative assay; type: cell-based; settings: Homo sapiens, NB-4, 120 h; NB4, Acute myeloid leukemia; 5 days incubation
# Method: as §1
# Toledo = test: XTT antiproliferative assay; type: cell-based; settings: Homo sapiens, 120 h, Non-Hodgkin's Lymphoma, 5 days incubation
# Method: as §1
# HL-60 = test: XTT antiproliferative assay; type: cell-based; settings: Homo sapiens, 120 h; HL-60, Acute myeloid leukemia; 5 days incubation
# Method: as §1
# U266B1 = test: XTT antiproliferative assay; type: cell-based; settings: 120 h; U266B1, Multiple myeloma; 5 days incubation
# Method: as §1
# [1] = GLP blood compatibility studies
# hERG = hERG (Homo sapiens, UniProt Q12809); test: hERG tail current density
# hERG, sequence (Q12809 whole entry): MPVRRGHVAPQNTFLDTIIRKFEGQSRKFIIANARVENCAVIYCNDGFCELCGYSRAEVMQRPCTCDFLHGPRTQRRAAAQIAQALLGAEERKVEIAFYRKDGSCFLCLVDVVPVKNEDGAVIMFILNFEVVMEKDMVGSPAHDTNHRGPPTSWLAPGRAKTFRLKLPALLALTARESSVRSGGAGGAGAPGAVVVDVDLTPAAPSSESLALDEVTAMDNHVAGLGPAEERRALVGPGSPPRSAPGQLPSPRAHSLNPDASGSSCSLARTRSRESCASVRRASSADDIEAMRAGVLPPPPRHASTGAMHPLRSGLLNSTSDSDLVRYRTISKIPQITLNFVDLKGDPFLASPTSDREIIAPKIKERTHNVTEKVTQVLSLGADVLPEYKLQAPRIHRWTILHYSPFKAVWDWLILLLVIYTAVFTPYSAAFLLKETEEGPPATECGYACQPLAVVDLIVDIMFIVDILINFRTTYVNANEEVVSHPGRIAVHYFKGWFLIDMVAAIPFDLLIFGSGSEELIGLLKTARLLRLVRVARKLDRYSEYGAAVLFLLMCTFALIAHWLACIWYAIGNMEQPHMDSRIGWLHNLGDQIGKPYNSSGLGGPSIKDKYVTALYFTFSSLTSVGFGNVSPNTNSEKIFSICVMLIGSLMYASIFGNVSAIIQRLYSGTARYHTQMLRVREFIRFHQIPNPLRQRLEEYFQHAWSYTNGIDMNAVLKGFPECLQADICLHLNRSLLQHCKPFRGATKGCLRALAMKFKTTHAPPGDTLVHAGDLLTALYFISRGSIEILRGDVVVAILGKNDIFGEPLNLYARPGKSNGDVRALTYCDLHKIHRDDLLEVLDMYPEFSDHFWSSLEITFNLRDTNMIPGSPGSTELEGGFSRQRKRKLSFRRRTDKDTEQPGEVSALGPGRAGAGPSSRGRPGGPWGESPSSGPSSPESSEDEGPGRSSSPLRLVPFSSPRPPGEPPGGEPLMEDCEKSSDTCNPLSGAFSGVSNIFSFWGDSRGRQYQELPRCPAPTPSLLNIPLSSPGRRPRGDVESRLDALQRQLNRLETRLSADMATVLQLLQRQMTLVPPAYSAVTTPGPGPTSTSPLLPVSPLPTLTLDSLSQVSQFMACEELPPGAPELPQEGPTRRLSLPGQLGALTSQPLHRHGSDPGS
# H226 xenograft = H226 xenograft model, dose and schedule; type: in vivo, mice; settings: groups 2, 3 and 4: 10 mg/kg-iv, schedules 3T-12B-3T, 2T-5B-2T, 3T-5B-3T, 2 cycles
# THP1 cells = test: BAX/BCL2 expression, quantitative RT-PCR; type: cell-based, human; settings: 0.5 μM, 48 hours
# Method: THP1 cells were treated with DMSO (vehicle control) or 0.5 μM LOR-253 for 48 hours. Total RNA was extracted using the TRIzol Plus RNA Purification kit (Ambion, Life Technologies), according to the manufacturer's instructions. First strand cDNA was synthesized from 1-2 ug total RNA using random hexamer primers (Invitrogen) and the SuperScript II Reverse Transcriptase kit (Invitrogen). Quantitative RT-PCR was performed in the ABI Prism 7000 Sequence Detection System using cDNAs and human TaqMan Gene Expression Assay primer/probe sets for BCL2-associated X protein (BAX), B-cell CLL/Lymphoma 2 (BCL2) and the ABI TaqMan Universal PCR master mix protocol. Gene expression was normalized with β-actin gene expression in the same sample, and fold changes in BAX or BCL2 were expressed relative to the corresponding expression level in the DMSO treated samples using the comparative CT method.
# CYP450 enzymes = test: CYP450 enzyme inhibition; type: in vitro ADME
compound,measurement,setting,value
Cc1[nH]c2ccc(F)cc2c1-c1nc2c3cccnc3c3ncccc3c2[nH]1 [LOR-253],IC50,EOL-1,58 nM
same,IC50,MV-4-11,69 nM
same,IC50,OCI-AML2,76 nM
same,IC50,DB,99 nM
same,IC50,KG-1,33 nM
same,IC50,Ramos,125 nM
same,IC50,CA46,190 nM
same,IC50,RL,190 nM
same,IC50,MOLT-4,70 nM
same,IC50,HEL92.1.7,305 nM
same,IC50,THP-1,77 nM
same,IC50,Raji,11 nM
same,IC50,MM.1R,150 nM
same,IC50,Kasumi-1,6.9 nM
same,IC50,SKM-1,145 nM
same,IC50,NB4,60 nM
same,IC50,Toledo,77 nM
same,IC50,HL-60,46 nM
same,IC50,U266B1,180 nM
same,blood compatibility of IV formulation,[1],confirmed the suitability of IV formulation
same,inhibition of hERG tail current density,hERG,no significant inhibition
same,"tumor size, H226 xenograft",H226 xenograft,effectively treated
same,BAX expression (fold change vs DMSO),THP1 cells,Elevation of BAX
same,BCL2 expression (fold change vs DMSO),THP1 cells,repression of BCL2
same,inhibition of CYP450 enzymes,CYP450 enzymes,no significant inhibition
